This experiment concerns the target PDE5 (Homo sapiens (Human), UniProt O76074). The experiment is described as follows: PDE5 Inhibition Assay (BPS PDE assay kit, fluorescence polarization). The class given is biochemical. On the procedure:
Materials and Methods: PDE5 inhibition was assayed at BPS Bioscience (San Diego, Calif.) using BPS PDE assay kits (BPS Catalog number 60300, enzyme lot 090810). Test compounds were supplied as liquid solutions of 10 mM concentration in DMSO. Sildenafil, used as a standard was dissolved in DMSO. Intermediate dilutions were 10% DMSO in PDE assay buffer and tests at ranges from 0.1 to 100 nM. 0.1 ng of enzyme was used per reaction, and the substrate was 100 nM FAM-cGMP.
Assay conditions: A series of dilutions of the test compounds were prepared with 10% DMSO in assay buffer and 5 μl of the dilution was added to a 50 μl reaction so that the final concentration of DMSO is 1% in all of reactions. The enzymatic reactions were conducted at room temperature for 60 minutes in a 50 μl mixture containing PDE assay buffer, 100 nM FAM-cAMP or 100 nM FAM-cGMP, a PDE enzyme, and the test compound. After the enzymatic reaction, 100 μl of a binding solution (1:100 dilution of the binding agent with the binding agent diluent) was added to each reaction and the reaction was performed at room temperature for 60 minutes. Fluorescence intensity was measured at an excitation of 485 nm and an emission of 528 nm using a Tecan Infinite M1000 microplate reader.
Data analysis: PDE activity assays were performed in duplicate at each concentration.
Fluorescence intensity is converted to fluorescence polarization using the Tecan Magellan6 software. The fluorescence polarization data were analyzed using the computer software, Graphpad Prism. The fluorescence polarization (FPt) in absence of the compound in each data set was defined as 100% activity. In the absence of PDE and the compound, the value of fluorescent polarization (FPb) in each data set was defined as 0% activity. The percent activity in the presence of the compound was calculated according to the following equation: % activity=(FP−FPb)/(FPt−FPb)×100%, where FP=the fluorescence polarization in the presence of the compound.
The values of % activity versus a series of compound concentrations were then plotted using non-linear regression analysis of Sigmoidal dose-response curve generated with the equation Y=B+(T−B)/1+10^((LogEC50−X)×Hill Slope), where Y=percent activity, B=minimum percent activity, T=maximum percent activity, X=logarithm of compound and Hill Slope=slope factor or Hill coefficient. The IC50 value was determined by the concentration causing a half-maximal percent activity.
On the technique in general: Fluorescence polarisation rises when a labelled molecule tumbles more slowly, as on binding a larger partner.

As a reminder, the IC50 is the point on the concentration scale where inhibition reaches its midpoint. Read a low IC50 as greater potency.

For `COc1ccc(CNc2c3c(nc4ccc(C#N)cc24)CCN(C)C3)cc1Cl` [B, 10-[(3-chloro-4-methoxybenzyl)amino]-2-methyl-1,2,3,4-tetrahydrobenzo[b][1,6]naphthyridine-8-carbonitrile], the IC50 is 1 nM. As to `CCN1CCc2nc3ccc(C#N)cc3c(NCc3ccc(OC)c(Cl)c3)c2C1` [C, 10-[(3-chloro-4-methoxybenzyl)amino]-2-ethyl-1,2,3,4-tetrahydrobenzo[b][1,6]naphthyridine-8-carbonitrile], half-maximal inhibition (IC50) required 0.2 nM.

In the case of `COc1ccc(CNc2c3c(nc4ccccc24)CN(C(C)(C)C)C3=O)cc1Cl` [Compound P, 2-(tert-butyl)-9-[(3-chloro-4-methoxybenzyl)amino]-2,3-dihydro-1H-pyrrolo[3,4-b]quinolin-1-one], the IC50 was 333 nM. `CCN1Cc2nc3ccc(C#N)cc3c(NCc3ccc(OC)c(Cl)c3)c2C1=O` [K, 9-[(3-chloro-4-methoxybenzyl)amino]-2-ethyl-1-oxo-2,3-dihydro-1H-pyrrolo[3,4-b]quinoline-7-carbonitrile] yielded an IC50 of 0.059 nM. For `CCN1Cc2nc3ccc(OC)cc3c(NCc3ccc(OC)c(Cl)c3)c2C1=O` [L, 9-((3-chloro-4-methoxybenzyl)amino)-2-ethyl-7-methoxy-2,3-dihydro-1H-pyrrolo[3,4-b]quinolin-1-one], the midpoint of inhibition, the IC50, lay at 3.8 nM. `CCN1Cc2nc3ccc(C(F)(F)F)cc3c(NCc3ccc(OC)c(Cl)c3)c2C1=O` [M, 9-[(3-chloro-4-methoxybenzyl)amino]-2-ethyl-7-(trifluoromethyl)-2,3-dihydro-1H-pyrrolo[3,4-b]quinolin-1-one] showed an IC50 of 0.29 nM. `CCN1Cc2nc3ccc(Cl)cc3c(NCc3ccc(OC)c(Cl)c3)c2C1=O` [N, 7-chloro-9-[(3-chloro-4-methoxybenzyl)amino]-2-ethyl-2,3-dihydro-1H-pyrrolo[3,4-b]quinolin-1-one] yielded an IC50 of 1.7 nM. Turning to `CCN1Cc2nc3ccccc3c(NCc3ccc(OC)c(Cl)c3)c2C1=O` [O, 9-[(3-chloro-4-methoxybenzyl)amino]-2-ethyl-2,3-dihydro-1H-pyrrolo[3,4-b]quinolin-1-one], the IC50 was 64 nM.

Source of the values: US10899756B2, “Phosphodiesterase inhibitors and uses thereof” (The Trustees of Columbia University in the City of New York, priority 2013, dated 2021).
